# Columns and labels:
# Progesterone PR-B = Progesterone PR-B (Homo sapiens, UniProt P06401); assay: biochemical; settings: read-out: % inhibition
# Glucocorticoid = Glucocorticoid (Homo sapiens, UniProt P04150); assay: biochemical; settings: read-out: % inhibition
# Insulin = Insulin (Rattus norvegicus, UniProt P15127); assay: biochemical; settings: read-out: % inhibition
# Androgen (Testosterone) = Androgen (Testosterone) (Homo sapiens, UniProt P10275); assay: biochemical; settings: read-out: % inhibition
# CYP450, 19 = CYP450, 19 (Homo sapiens, UniProt P11511); assay: biochemical; settings: read-out: % inhibition
# [1] = target: SERCA2a (guinea-pig cardiac SR microsomes) (Cavia porcellus, UniProt A0A286XD73); assay: […]-ATP hydrolysis; assay type: biochemical; settings: 37 °C; normal guinea-pig heart SR microsomes; activation; PLN present
# [2] = target: Na+/K+ ATPase alpha1 isoform from dog kidney (Canis lupus, UniProt P50997); assay: […]-ATP hydrolysis, ouabain-sensitive ATPase inhibition; assay type: biochemical
# Monoamine Oxidase MAO-A = Monoamine Oxidase MAO-A (Homo sapiens, UniProt P21397); assay: biochemical; settings: read-out: % inhibition
# [3] = target: Protein Tyrosine Kinase, Src (Homo sapiens, UniProt P12931); assay: biochemical; settings: read-out: % inhibition
# Monoamine Oxidase MAO-B = Monoamine Oxidase MAO-B (Homo sapiens, UniProt P27338); assay: biochemical; settings: read-out: % inhibition
# [4] = target: Protein Tyrosine Kinase, ABL1 (Homo sapiens, UniProt P00519); assay: biochemical; settings: read-out: % inhibition
# Peptidase, Renin = Peptidase, Renin (Homo sapiens, UniProt P00797); assay: biochemical; settings: read-out: % inhibition
# HMG-CoA Reductase = HMG-CoA Reductase (Homo sapiens, UniProt P04035); assay: biochemical; settings: read-out: % inhibition
# Aldosterone = Aldosterone (Rattus norvegicus, UniProt P22199); assay: biochemical; settings: read-out: % inhibition
# Sigma σ1 = Sigma σ1 (Homo sapiens, UniProt Q99720); assay: biochemical; settings: read-out: % inhibition
# Dopamine D3 = Dopamine D3 (Homo sapiens, UniProt P35462); assay: biochemical; settings: read-out: % inhibition
# [5] = target: Transporter, Norepinephrine (NET) (Homo sapiens, UniProt P23975); assay: biochemical; settings: read-out: % inhibition
# Estrogen ERβ = Estrogen ERβ (Homo sapiens, UniProt Q92731); assay: biochemical; settings: read-out: % inhibition
# Sigma σ2 = Sigma σ2 (Rattus norvegicus, UniProt Q5U3Y7); assay: biochemical; settings: read-out: % inhibition
# [6] = target: Nicotinic Acetylcholine α3β4 (Homo sapiens, UniProt P30926+P32297); assay: biochemical; settings: read-out: % inhibition
# Angiotensin AT2 = Angiotensin AT2 (Homo sapiens, UniProt P50052); assay: biochemical; settings: read-out: % inhibition
# Potassium Channel hERG = Potassium Channel hERG (Homo sapiens, UniProt Q12809); assay: in vitro; settings: crude membrane preparations
# Estrogen ERα = Estrogen ERα (Homo sapiens, UniProt P03372); assay: biochemical; settings: read-out: % inhibition
# Muscarinic M2 = Muscarinic M2 (Homo sapiens, UniProt P08172); assay: biochemical; settings: read-out: % inhibition
# Muscarinic M3 = Muscarinic M3 (Homo sapiens, UniProt P20309); assay: biochemical; settings: read-out: % inhibition
# Opiate μ (OP3, MOP) = Opiate μ (OP3, MOP) (Homo sapiens, UniProt P35372); assay: biochemical; settings: read-out: % inhibition
# Angiotensin AT1 = Angiotensin AT1 (Homo sapiens, UniProt P30556); assay: biochemical; settings: read-out: % inhibition
# Adrenergic β2 = Adrenergic β2 (Homo sapiens, UniProt P07550); assay: biochemical; settings: read-out: % inhibition
# Adenosine A1 = Adenosine A1 (Homo sapiens, UniProt P30542); assay: biochemical; settings: read-out: % inhibition
# Histamine H1 = Histamine H1 (Homo sapiens, UniProt P35367); assay: biochemical; settings: read-out: % inhibition
# Adrenergic α2A = Adrenergic α2A (Homo sapiens, UniProt P08913); assay: biochemical; settings: read-out: % inhibition
# Adrenergic α1B = Adrenergic α1B (Rattus norvegicus, UniProt P15823); assay: biochemical; settings: read-out: % inhibition
# Adenosine A2A = Adenosine A2A (Homo sapiens, UniProt P29274); assay: biochemical; settings: read-out: % inhibition
# Muscarinic M5 = Muscarinic M5 (Homo sapiens, UniProt P08912); assay: biochemical; settings: read-out: % inhibition
# Adrenergic α1A = Adrenergic α1A (Rattus norvegicus, UniProt P43140); assay: biochemical; settings: read-out: % inhibition
# Dopamine D1 = Dopamine D1 (Homo sapiens, UniProt P21728); assay: biochemical; settings: read-out: % inhibition
# Dopamine D2s = Dopamine D2s (Homo sapiens, UniProt P14416); assay: biochemical; settings: read-out: % inhibition
# Adrenergic β1 = Adrenergic β1 (Homo sapiens, UniProt P08588); assay: biochemical; settings: read-out: % inhibition
# [7] = target: Peptidase, Angiotensin Converting Enzyme (Oryctolagus cuniculus, UniProt P12822); assay: biochemical; settings: read-out: % inhibition
# Nicotinic Acetylcholine α3β4, sequence (P30926 whole entry): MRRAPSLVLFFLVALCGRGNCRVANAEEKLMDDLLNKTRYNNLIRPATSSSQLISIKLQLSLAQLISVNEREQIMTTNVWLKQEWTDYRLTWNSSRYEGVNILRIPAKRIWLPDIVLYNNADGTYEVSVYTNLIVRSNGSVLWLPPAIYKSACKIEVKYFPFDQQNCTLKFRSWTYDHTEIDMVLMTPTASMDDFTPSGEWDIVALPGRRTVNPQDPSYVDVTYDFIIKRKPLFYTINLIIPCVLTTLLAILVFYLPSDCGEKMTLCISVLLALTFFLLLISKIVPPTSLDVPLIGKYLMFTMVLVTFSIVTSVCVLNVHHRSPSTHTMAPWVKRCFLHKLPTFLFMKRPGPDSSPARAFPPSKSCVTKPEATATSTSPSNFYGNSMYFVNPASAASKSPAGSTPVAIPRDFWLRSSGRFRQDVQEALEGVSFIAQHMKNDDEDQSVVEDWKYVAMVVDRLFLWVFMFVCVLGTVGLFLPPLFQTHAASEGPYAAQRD
# Nicotinic Acetylcholine α3β4, sequence (P32297 whole entry): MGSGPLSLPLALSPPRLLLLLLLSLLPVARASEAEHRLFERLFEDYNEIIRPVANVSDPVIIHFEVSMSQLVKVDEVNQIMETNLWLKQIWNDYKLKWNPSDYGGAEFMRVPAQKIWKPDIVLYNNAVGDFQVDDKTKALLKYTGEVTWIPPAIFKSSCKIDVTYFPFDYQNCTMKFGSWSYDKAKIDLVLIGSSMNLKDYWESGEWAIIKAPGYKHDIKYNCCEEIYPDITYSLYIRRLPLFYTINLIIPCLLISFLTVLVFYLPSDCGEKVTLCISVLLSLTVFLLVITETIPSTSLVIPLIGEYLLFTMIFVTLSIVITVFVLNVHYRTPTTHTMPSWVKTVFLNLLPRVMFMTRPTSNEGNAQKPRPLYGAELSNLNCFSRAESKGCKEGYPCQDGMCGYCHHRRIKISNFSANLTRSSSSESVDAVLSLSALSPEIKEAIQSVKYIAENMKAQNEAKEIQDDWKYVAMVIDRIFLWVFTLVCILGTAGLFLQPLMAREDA
# Adrenergic β2, sequence (P07550 whole entry): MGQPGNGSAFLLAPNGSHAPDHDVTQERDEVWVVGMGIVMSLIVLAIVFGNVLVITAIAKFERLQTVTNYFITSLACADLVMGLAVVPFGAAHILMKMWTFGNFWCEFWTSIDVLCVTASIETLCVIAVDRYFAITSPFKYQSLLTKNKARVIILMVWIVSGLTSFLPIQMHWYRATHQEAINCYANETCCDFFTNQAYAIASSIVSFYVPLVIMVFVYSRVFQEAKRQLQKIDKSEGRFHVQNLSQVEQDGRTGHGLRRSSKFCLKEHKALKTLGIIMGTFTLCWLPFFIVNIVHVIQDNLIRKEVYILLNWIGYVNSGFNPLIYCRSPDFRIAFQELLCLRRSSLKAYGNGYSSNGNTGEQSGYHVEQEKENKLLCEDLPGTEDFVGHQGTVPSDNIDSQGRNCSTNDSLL
# Sigma σ1, sequence (Q99720 whole entry): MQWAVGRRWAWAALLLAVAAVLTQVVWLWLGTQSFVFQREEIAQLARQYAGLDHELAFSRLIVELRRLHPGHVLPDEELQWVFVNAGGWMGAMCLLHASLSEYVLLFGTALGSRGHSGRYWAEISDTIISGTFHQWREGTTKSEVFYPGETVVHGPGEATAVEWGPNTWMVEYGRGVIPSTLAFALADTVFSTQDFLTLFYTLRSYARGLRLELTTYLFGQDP
# Protein Tyrosine Kinase, ABL1, sequence (P00519 whole entry): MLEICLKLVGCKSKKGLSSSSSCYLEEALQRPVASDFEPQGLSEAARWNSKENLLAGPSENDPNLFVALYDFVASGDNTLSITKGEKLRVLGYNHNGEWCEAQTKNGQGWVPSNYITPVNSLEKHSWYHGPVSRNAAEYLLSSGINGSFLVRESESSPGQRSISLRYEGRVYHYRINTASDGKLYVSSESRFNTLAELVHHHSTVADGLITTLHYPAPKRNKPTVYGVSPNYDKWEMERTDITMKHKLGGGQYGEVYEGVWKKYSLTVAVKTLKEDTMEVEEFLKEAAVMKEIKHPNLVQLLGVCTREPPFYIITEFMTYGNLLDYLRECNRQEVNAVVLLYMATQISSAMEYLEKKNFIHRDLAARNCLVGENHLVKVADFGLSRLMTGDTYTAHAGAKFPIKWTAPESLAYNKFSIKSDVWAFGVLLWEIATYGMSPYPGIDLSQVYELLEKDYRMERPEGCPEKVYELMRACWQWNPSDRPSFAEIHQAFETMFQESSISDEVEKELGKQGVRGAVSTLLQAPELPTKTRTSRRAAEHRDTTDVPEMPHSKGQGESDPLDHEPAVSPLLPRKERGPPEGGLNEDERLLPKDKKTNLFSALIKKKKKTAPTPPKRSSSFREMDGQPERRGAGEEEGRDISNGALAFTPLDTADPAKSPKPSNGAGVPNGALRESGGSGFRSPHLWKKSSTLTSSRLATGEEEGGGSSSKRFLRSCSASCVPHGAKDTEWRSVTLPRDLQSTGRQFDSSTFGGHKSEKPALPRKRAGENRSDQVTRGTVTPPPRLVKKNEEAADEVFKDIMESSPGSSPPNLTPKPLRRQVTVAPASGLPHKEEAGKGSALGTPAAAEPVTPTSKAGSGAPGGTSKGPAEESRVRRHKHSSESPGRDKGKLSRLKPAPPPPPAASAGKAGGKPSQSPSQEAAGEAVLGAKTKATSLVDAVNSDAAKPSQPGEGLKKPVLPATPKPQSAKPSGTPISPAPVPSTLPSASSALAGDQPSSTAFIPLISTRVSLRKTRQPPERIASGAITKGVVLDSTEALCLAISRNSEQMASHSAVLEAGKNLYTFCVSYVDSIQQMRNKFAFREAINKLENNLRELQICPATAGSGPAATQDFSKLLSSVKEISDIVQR
# Angiotensin AT2, sequence (P50052 whole entry): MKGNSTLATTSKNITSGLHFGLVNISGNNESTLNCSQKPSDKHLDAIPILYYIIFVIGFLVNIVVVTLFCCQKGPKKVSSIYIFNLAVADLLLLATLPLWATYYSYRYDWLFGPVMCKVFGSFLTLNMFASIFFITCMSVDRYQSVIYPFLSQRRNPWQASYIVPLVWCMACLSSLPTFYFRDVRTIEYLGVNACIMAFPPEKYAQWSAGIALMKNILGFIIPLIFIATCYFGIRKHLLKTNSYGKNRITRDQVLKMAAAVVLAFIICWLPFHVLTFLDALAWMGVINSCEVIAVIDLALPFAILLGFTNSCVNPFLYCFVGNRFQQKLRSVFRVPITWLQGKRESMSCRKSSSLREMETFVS
# Adrenergic α1B, sequence (P15823 whole entry): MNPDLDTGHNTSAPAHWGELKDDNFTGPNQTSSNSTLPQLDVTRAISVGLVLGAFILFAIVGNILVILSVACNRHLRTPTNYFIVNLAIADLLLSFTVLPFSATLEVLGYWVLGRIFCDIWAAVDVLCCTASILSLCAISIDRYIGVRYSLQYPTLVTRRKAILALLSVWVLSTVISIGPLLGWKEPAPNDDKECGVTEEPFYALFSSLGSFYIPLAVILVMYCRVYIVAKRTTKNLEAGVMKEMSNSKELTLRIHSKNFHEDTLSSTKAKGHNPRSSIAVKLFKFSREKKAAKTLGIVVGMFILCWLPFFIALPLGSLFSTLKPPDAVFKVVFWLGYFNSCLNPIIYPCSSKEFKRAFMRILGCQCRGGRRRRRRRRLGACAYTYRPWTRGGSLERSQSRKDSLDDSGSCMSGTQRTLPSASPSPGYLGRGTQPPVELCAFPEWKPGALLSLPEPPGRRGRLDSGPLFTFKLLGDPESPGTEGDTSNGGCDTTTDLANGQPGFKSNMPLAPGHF
# Adrenergic α1A, sequence (P43140 whole entry): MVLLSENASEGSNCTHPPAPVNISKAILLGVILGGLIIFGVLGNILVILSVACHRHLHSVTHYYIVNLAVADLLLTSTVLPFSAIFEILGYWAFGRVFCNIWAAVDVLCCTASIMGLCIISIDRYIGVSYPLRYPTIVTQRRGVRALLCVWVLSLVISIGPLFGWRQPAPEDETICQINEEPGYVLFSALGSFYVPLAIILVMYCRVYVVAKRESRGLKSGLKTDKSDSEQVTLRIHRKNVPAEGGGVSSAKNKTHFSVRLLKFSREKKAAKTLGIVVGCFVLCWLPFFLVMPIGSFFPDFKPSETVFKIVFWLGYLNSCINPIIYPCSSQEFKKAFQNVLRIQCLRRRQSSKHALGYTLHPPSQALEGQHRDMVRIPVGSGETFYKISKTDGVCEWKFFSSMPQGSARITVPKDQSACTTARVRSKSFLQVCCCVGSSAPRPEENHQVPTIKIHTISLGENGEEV
# Protein Tyrosine Kinase, Src, sequence (P12931 whole entry): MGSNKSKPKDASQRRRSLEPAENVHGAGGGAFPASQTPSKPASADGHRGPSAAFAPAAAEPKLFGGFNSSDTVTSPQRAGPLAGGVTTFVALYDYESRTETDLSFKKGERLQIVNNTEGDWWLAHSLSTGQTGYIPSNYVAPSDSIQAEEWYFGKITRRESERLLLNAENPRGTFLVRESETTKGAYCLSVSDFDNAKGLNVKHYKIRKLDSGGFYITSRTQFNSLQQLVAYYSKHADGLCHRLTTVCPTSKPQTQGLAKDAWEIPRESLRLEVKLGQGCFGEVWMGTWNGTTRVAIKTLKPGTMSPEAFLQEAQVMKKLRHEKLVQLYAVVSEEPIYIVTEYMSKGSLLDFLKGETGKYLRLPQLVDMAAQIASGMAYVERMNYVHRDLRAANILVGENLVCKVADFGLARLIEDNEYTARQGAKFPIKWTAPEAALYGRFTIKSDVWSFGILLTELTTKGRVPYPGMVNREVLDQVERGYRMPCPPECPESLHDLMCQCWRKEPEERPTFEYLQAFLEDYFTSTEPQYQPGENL
# Sigma σ2, sequence (Q5U3Y7 whole entry): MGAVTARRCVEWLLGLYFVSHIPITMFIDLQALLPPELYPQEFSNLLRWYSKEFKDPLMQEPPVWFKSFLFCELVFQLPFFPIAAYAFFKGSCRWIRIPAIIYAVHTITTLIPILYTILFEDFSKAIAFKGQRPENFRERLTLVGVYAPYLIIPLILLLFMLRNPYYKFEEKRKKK
structure (smiles),measurement,setting,value
"C[C@]12CCC(=NOCC(=O)O)C[C@@H]1[C@H](O)C[C@@H]1[C@@H]2CC[C@]2(C)C(=O)CC[C@@H]12 (mixture of isomers) [PST3093, (E,Z)-[(6-beta-hydroxy-17-oxoandrostan-3-ylidene)amino]oxyacetic acid]",inhibition at 10 µM,Progesterone PR-B,-15%
same,inhibition at 10 µM,Glucocorticoid,8%
same,inhibition at 10 µM,Insulin,6%
same,inhibition at 10 µM,Androgen (Testosterone),3%
same,inhibition at 10 µM,"CYP450, 19",12%
same,% reduction of KdCa at 100 nM,[1],~ 20%
same,IC50,[2],> 100 µM
same,inhibition at 10 µM,Monoamine Oxidase MAO-A,2%
same,inhibition at 10 µM,[3],-1%
same,inhibition at 10 µM,Monoamine Oxidase MAO-B,-3%
same,inhibition at 10 µM,[4],3%
same,inhibition at 10 µM,"Peptidase, Renin",6%
same,inhibition at 10 µM,HMG-CoA Reductase,-2%
same,inhibition at 10 µM,Aldosterone,5%
same,inhibition at 10 µM,Sigma σ1,7%
same,inhibition at 10 µM,Dopamine D3,1%
same,inhibition at 10 µM,[5],4%
same,inhibition at 10 µM,Estrogen ERβ,7%
same,inhibition at 10 µM,Sigma σ2,12%
same,inhibition at 10 µM,[6],1%
same,inhibition at 10 µM,Angiotensin AT2,7%
same,inhibition at 10 µM,Potassium Channel hERG,10%
same,inhibition at 10 µM,Estrogen ERα,-6%
same,inhibition at 10 µM,Muscarinic M2,-7%
same,inhibition at 10 µM,Muscarinic M3,4%
same,inhibition at 10 µM,"Opiate μ (OP3, MOP)",-5%
same,inhibition at 10 µM,Angiotensin AT1,-1%
same,inhibition at 10 µM,Adrenergic β2,7%
same,inhibition at 10 µM,Adenosine A1,-2%
same,inhibition at 10 µM,Histamine H1,-3%
same,inhibition at 10 µM,Adrenergic α2A,-5%
same,inhibition at 10 µM,Adrenergic α1B,0%
same,inhibition at 10 µM,Adenosine A2A,-6%
same,inhibition at 10 µM,Muscarinic M5,5%
same,inhibition at 10 µM,Adrenergic α1A,2%
same,inhibition at 10 µM,Dopamine D1,3%
same,inhibition at 10 µM,Dopamine D2s,26%
same,inhibition at 10 µM,Adrenergic β1,-4%
same,inhibition at 10 µM,[7],3%

# Reference: paper doi:10.1101/2021.08.17.455204v3 (biorxiv, 2022)
